The target in test [1] is Mitogen-activated protein kinase kinase kinase 10 (Homo sapiens, UniProt Q02779). As to the kind of experiment: Inhibition of Mixed lineage kinase 2(MLK2).
For test [2], the target named is Mitogen-activated protein kinase kinase kinase 11 (Homo sapiens, UniProt Q16584). Description: Inhibition of Mixed lineage kinase 3 (MLK3).
For test [3], the target named is Protein kinase C (PKC). Description: Inhibition of protein kinase C (PKC) from rat brain homogenate.
Test [4] concerns the target High affinity nerve growth factor receptor (Homo sapiens, UniProt P04629). Description: Inhibition of NGF high affinity receptor tyrosine kinase TrkA.
In test [5] the target is Mitogen-activated protein kinase kinase kinase 9 (Homo sapiens, UniProt P80192). As to the kind of experiment: Inhibition of Mixed lineage kinase 1 (MLK1).

Structures are written as SMILES. Some results are limits rather than exact numbers.

These results are taken from ChEMBL document CHEMBL1135365, “Mixed lineage kinase activity of indolocarbazole analogues” (Bioorg Med Chem Lett, 2002).

Chain of Mitogen-activated protein kinase kinase kinase 9 (P80192 whole entry): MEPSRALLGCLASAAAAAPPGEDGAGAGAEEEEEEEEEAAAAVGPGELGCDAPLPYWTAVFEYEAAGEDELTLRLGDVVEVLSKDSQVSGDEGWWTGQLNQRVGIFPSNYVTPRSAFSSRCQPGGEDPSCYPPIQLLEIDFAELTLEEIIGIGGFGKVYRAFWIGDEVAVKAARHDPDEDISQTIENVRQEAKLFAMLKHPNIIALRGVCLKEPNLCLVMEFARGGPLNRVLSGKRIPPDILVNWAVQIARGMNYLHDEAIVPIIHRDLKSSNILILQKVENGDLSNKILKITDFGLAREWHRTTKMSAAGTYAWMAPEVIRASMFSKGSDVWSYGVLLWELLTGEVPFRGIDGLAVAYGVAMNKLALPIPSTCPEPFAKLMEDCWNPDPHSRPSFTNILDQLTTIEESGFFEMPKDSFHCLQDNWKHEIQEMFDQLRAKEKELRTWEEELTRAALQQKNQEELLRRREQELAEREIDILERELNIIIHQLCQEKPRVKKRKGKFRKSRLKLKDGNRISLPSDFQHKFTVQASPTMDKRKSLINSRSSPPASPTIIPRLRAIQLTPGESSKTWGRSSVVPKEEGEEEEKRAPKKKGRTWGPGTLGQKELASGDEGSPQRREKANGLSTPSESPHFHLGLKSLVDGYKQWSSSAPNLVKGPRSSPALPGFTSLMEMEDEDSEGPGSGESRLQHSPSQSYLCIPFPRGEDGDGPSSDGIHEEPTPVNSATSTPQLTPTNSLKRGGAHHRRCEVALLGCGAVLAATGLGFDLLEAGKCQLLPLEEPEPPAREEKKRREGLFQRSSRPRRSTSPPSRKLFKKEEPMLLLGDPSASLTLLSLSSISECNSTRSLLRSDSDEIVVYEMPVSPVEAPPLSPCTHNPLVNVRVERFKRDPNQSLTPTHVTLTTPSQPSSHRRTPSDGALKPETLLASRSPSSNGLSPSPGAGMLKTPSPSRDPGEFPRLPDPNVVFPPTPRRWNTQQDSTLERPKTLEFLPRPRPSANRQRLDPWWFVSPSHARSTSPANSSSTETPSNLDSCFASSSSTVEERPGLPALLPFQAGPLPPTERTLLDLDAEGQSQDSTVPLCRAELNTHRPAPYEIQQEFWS
Chain of Mitogen-activated protein kinase kinase kinase 10 (Q02779 whole entry): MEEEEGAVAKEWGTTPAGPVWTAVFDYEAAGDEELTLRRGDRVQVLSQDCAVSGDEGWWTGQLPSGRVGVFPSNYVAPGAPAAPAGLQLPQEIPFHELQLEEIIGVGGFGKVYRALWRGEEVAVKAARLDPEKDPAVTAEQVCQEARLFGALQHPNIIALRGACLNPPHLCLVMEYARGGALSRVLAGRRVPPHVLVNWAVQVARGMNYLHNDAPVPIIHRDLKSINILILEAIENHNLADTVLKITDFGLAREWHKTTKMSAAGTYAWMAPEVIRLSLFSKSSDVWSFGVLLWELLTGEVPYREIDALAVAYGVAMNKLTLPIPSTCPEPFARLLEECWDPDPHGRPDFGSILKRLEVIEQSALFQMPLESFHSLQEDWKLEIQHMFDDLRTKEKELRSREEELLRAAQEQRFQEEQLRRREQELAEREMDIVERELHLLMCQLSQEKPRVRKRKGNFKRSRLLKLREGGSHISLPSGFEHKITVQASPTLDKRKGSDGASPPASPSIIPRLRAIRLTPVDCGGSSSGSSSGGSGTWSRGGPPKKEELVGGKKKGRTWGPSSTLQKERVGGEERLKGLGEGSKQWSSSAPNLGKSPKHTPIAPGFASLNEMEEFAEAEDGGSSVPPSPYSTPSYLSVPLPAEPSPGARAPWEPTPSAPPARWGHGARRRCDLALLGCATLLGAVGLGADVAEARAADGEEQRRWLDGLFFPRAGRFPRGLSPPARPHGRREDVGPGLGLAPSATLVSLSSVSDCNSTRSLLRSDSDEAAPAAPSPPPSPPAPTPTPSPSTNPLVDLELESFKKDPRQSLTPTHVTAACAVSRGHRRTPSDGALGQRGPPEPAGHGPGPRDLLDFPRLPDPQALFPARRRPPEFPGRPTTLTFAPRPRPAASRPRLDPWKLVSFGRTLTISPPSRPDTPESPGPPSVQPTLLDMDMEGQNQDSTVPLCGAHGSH
Chain of High affinity nerve growth factor receptor (P04629 whole entry): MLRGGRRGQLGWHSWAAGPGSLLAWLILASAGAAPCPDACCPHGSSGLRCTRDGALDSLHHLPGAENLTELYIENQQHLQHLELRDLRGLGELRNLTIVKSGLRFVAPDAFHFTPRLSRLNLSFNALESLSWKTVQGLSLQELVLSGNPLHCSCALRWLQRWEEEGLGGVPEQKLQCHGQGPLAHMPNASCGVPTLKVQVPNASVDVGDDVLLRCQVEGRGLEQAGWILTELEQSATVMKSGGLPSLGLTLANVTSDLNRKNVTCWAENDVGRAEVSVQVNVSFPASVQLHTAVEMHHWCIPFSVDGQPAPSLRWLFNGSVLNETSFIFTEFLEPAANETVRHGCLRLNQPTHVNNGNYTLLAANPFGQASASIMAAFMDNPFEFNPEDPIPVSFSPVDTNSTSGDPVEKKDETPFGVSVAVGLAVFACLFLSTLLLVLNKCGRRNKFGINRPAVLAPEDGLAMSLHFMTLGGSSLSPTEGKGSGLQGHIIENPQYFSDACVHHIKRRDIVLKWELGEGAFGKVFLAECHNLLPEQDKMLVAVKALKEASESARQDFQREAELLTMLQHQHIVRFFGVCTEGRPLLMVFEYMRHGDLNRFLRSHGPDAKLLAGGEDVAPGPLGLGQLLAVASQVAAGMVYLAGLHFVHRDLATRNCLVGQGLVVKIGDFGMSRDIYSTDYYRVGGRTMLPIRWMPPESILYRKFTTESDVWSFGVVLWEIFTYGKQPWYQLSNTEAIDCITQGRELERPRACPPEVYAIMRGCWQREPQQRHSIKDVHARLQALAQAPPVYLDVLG
Chain of Mitogen-activated protein kinase kinase kinase 11 (Q16584 whole entry): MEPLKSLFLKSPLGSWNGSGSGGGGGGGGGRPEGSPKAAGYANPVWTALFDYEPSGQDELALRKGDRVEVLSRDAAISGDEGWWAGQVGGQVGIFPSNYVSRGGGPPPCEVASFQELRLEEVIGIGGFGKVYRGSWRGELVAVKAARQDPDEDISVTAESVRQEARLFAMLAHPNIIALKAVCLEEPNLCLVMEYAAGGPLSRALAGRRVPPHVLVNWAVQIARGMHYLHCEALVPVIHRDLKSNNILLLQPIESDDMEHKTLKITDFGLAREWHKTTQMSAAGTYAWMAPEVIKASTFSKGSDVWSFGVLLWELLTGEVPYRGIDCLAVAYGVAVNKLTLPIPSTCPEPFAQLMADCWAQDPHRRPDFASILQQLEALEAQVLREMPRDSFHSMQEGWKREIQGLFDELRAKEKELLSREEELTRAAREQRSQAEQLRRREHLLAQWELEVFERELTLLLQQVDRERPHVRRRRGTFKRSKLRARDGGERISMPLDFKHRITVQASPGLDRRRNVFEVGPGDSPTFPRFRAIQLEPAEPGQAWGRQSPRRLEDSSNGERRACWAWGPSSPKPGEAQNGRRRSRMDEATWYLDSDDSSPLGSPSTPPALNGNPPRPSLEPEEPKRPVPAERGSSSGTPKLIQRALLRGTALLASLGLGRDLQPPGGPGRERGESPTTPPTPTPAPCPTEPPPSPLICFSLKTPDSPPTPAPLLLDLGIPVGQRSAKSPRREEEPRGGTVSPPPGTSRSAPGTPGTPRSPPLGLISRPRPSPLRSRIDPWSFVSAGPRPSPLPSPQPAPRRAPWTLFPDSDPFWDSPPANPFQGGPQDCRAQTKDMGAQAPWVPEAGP

The IC50 is the concentration needed to halve the response being measured. A lower IC50 goes with greater potency in that assay. As for `CCSCc1ccc2c(c1)c1c3c(c4c5cc(CSCC)ccc5n5c4c1n2[C@H]1C[C@](O)(C(=O)OC)[C@]5(C)O1)CNC3=O` [CEP-1347], the IC50 was 51 nM in test [1]; 23.1 nM in test [2]; over 10000 nM in test [3]; over 10000 nM in test [4]; 38 nM in test [5].

Turning to `COC(=O)[C@@]1(O)C[C@H]2O[C@]1(C)n1c3ccc(CO)cc3c3c4c(c5c6cc(CO)ccc6n2c5c31)C(=O)NC4`, the IC50 in test [2] amounted to 11 nM; in test [3], 3 nM; in test [5], 15 nM.

As for `CCSCc1ccc2c(c1)c1c3c(c4c5ccccc5n5c4c1n2[C@H]1C[C@](O)(C(=O)OC)[C@]5(C)O1)CNC3=O`, the 50% inhibitory concentration (IC50) in test [1] was 140 nM; in test [2] it was 44 nM; in test [3], 222 nM; in test [4] it was over 1000 nM; in test [5], 43 nM.

With `COC(=O)[C@@]1(O)C[C@H]2O[C@]1(C)n1c3ccc(CSCCN(C)C)cc3c3c4c(c5c6cc(CSCCN(C)C)ccc6n2c5c31)C(=O)NC4`, the concentration for half-maximal inhibition (IC50) in test [2] was 123 nM; in test [3], 1600 nM; in test [4], over 1000 nM; in test [5], 360 nM.

`COC(=O)[C@@]1(O)C[C@H]2O[C@]1(C)n1c3ccc(CSC(C)C)cc3c3c4c(c5c6cc(CSC(C)C)ccc6n2c5c31)C(=O)NC4`: the IC50 in test [1] was 89 nM; in test [2], 31 nM; in test [3], 980 nM; in test [4] it was over 10000 nM; in test [5] it was 45 nM.

Consider `CCSCc1ccc2c(c1)c1c3c(c4c5ccccc5n5c4c1n2[C@@]1(C)O[C@@H]5C[C@]1(O)C(=O)OC)C(=O)NC3`, for which the IC50 in test [1] stood at 28 nM; in test [2] it was 21 nM; in test [3], 400 nM; in test [4], 61 nM; in test [5] it was 28 nM.

For the molecule `CCCSCc1ccc2c(c1)c1c3c(c4c5cc(CSCCC)ccc5n5c4c1n2[C@H]1C[C@](O)(C(=O)OC)[C@]5(C)O1)CNC3=O`, the IC50 in test [2] was 56 nM; in test [3], over 10000 nM; in test [4], over 10000 nM; in test [5], 90 nM.

Take `CCOCc1ccc2c(c1)c1c3c(c4c5cc(COCC)ccc5n5c4c1n2[C@H]1C[C@](O)(C(=O)OC)[C@]5(C)O1)CNC3=O`: the IC50 in test [1] was determined as 20 nM; in test [2] it was 11 nM; in test [3], 2600 nM; in test [4], 210 nM; in test [5], 19 nM.

On to `CCCCSCc1ccc2c(c1)c1c3c(c4c5cc(CSCCCC)ccc5n5c4c1n2[C@H]1C[C@](O)(C(=O)OC)[C@]5(C)O1)CNC3=O`, for which the IC50 in test [1] is 627 nM; in test [2], 143 nM; in test [3], over 7600 nM; in test [4] it was over 1000 nM; in test [5], 303 nM.

For `C=CCSCc1ccc2c(c1)c1c3c(c4c5cc(CSCC=C)ccc5n5c4c1n2[C@H]1C[C@](O)(C(=O)OC)[C@]5(C)O1)CNC3=O`, the IC50 in test [2] is 94 nM; in test [3], over 10000 nM; in test [4], over 1000 nM; in test [5], 162 nM.

Turning to `COCc1ccc2c(c1)c1c3c(c4c5cc(COC)ccc5n5c4c1n2[C@H]1C[C@](O)(C(=O)OC)[C@]5(C)O1)CNC3=O`, the IC50 in test [1] came to 16 nM; in test [2], 11 nM; in test [3], 450 nM; in test [4], 270 nM; in test [5], 16 nM.
